Reference: patent publication USRE39264E1, “Pharmaceutical combination” (Medivir AB, priority 1996, dated 2006)

Key:
[1] = tested on: Human HSV-1 (strain C42 or SC16); experiment: Experiment 3: combination creams of an antiviral and an anti-inflammatory substance in the animal model for recurrent herpes infection; assay type: in vivo, Balb/C mice; details: for Lesion score (% of placebo) / ear thickness (% of placebo): placebo set to 100%
Method: Human HSV-1 (2×10^5 plaque forming units, pfu, strain C42 or SC16) is inoculated into the neck of groups of 10-18 female in-bred Balb/C mice (16-18 g) as described by Kristofferson et al. (“Limited efficacy of inhibitors of herpes simplex virus DNA synthesis in murine models of recrudescent disease”, J. Gen. Virol. 1988; 69:1157-66). The development of zosteriform spread infection is then recorded by daily inspection of the occurrence of lesions on the pinna and swelling of the ear.
The same animal model with ten animals in each group was used.

[2] = tested on: Human HSV-1 (strain C42 or SC16); experiment: Experiment 1: combination creams of foscarnet and an antiinflammatory substance in the animal model for recurrent herpes infection; assay type: in vivo, Balb/C mice; details: for Compounded value ± s.d., Ear thickness / Compounded value ± s.d., Lesion score: cream day 4-7 after infection three times daily, mean cumulative over days 4-12, 15 and 21, ATI day 2; for Compounded value ± s.d., Lesion score: score scale 0-4; for Ear thickness (% of placebo): cumulative ear thickness; for Ear thickness (% of placebo) / Lesion score (% of placebo): placebo set to 100%; for Lesion score (% of placebo): cumulative lesion score
Method: This transport will take approximately 3-4 days. […] Budesonide and lidocaine were selected for testing as examples of antiinflammatory compounds. The foscarnet cream Foscarnet Cream was prepared as described in Example 1. The cream base without drug was used as placebo. The cream base described above was also mixed with budesonide cream (0.025%, […]-Brocades, The Netherlands) to obtain suitable concentrations for treatment. […] Foscarnet, the two antiinflammatory substances, as well as the two combination creams were tested in the animal model described, with ten animals in each group. The respective cream was applied day 4-7 after infection three times daily.

[3] = tested on: Human HSV-1 (strain C42 or SC16); experiment: Experiment 2: sequential test of foscarnet cream and an antiinflammatory cream in the animal model for recurrent herpes infection
Description: In the novel animal model, virus is inoculated in the neck of a mouse. The virus will then be transported through the nerves to the skin of the corresponding ear. This transport will take approximately 3-4 days. On day 2 the animals are given immune cells with reactivity against the infecting virus. Subsequently, when the virus arrives at the ear, the animal instantly mobilises an effective immune response against the virus, thus mimicking the clinical situation of a recurrent herpes infection.
The development of zosteriform spread infection is then recorded by daily inspection of the occurrence of lesions on the pinna and swelling of the ear.
The lesions are scored on a scale from 0 to 4 as follows: • 0: no lesions on the ear • 1: isolated zosteriform lesions on the ear • 2: mild ulceration of zosteriform lesions on the ear • 3: moderate ulceration of zosteriform lesions on the ear • 4: severe ulceration of zosteriform lesions on the ear
Swelling of the ear was assessed by measuring the thickness of the ears using an engineers micrometer, as described by Kristofferson et al. The titre of infectious virus in the ear was measured as described by Kristofferson et al, except that BHK (baby hamster kidney) cells were used in addition.
On day 2 after infection the animals are given adoptive transfer of immunity, ATI, against HSV-1 by intravenous injection of 2×10^7 lymph node cells into the tail. Said lymph node cells had been prepared by injecting HSV-1 (10^5 pfu, strain C42 or strain SC16) into the pinna of both ears of anaesthetisized female Balb/C mice (16-18 g). Seven days post infection the animals are sacrificed by cervical dislocation, the draining lymph nodes are removed, and a suspension of lymph node cells in phosphate buffered saline is prepared by means of a micro mesh.
On day 4 after the infection and for 4 days, a composition to be tested as to activity against recurrent herpes is distributed equally in an amount of approximately 25 mg of cream on each side of the ear, every 8 h.
In this experiment the animals were treated with two different formulations 2 hours apart. First the foscarnet cream was applied and 2 hours later the antiinflammatory formulation. This was repeated three times daily during the treatment period (day 4-7 after infection).
The following substances were tested: foscarnet (3%, Foscarnet Cream), budesonide (0.025%, Preferid®, Gist-Brocades, The Netherlands), hydrocortisone (1%, Hydrokortison kräm 1% ACO, Kabi Pharmacia AB, Sweden), lidocaine (5%, Xylocaine®, Astra AB) and ketoprofen (2.5%, Oruvail®, Rhone-Poulenc Rorer NS, Denmark)

recurrent HSV infections = details: oral formulation, used after the appearance of symptoms; cited from earlier work
[4] = topical cream three times daily days 4-7 after infection, ATI day 2
[5] = systemic treatment, 50 mg/kg injected intra-peritoneally three times daily

Row | Compound | Mean cumulative value ± s.d., ear thickness [1, 4] | Mean cumulative value ± s.d., lesion score [1, 4] | Lesion score (% of placebo) ([1]; topical cream) | ear thickness (% of placebo) ([1]; topical cream) | Compounded value ± s.d., Ear thickness [2] | Compounded value ± s.d., Lesion score [2] | Ear thickness (% of placebo) [2] | Lesion score (% of placebo) [2] | also measured
1 | O=C(O)P(=O)(O)O [Foscarnet, Trisodium phosphonoformate hexahydrate] | 3.3 ± 0.2 mm | 7.3 ± 1.2 | 107 % of placebo | 98 % of placebo | 3.0 ± 0.4 mm | 7.5 ± 2.5 | 82 % of placebo | 82 % of placebo | Virus titre in the ear ± s.d. on d 7 ([3]; ATI +, day 7 after infection): 3.25 ± 0.49 log10pfu/ml; Ear thickness (% of placebo) ([3]; cumulative ear thickness, placebo set to 100%): 88 % of placebo; Lesion score (% of placebo) ([3]; cumulative lesion score, placebo set to 100%): 84 % of placebo; Reduction of virus titre compared to placebo-treated animals ([3]; day 7 after infection): about tenfold; Mean cumulative value ± s.d., lesion score ([3]; foscarnet cream, 2 hours later antiinflammatory cream, three times daily day 4-7 after infection, ATI day 2): 4.8 ± 2.0; Mean cumulative value ± s.d., Ear thickness ([3]; foscarnet cream, 2 hours later antiinflammatory cream, three times daily day 4-7 after infection, measured as in Experiment 1): 2.8 ± 0.3; Effect on ear thickness ([3]; in comparison to placebo): small reduction; Effect on lesion score ([3]; in comparison to placebo): small reduction
2 | C[C@]12CCC(=O)C=C1CC[C@@H]1[C@@H]2[C@@H](O)C[C@@]2(C)[C@H]1CC[C@]2(O)C(=O)CO [Hydrocortisone] | 2.0 ± 0.2 mm | 6.0 ± 1.3 | 88 % of placebo | 61 % of placebo |  |  |  |  | 
3 | CCN(CC)CC(=O)Nc1c(C)cccc1C [Lidocaine] |  |  |  |  | 3.6 ± 0.3 mm | 9 ± 2 | 100 % of placebo | 98 % of placebo | Effect on ear thickness / inflammation ([2]; compared to placebo or single creams): no effect
4 | COc1ccc2c(c1)c(CC(=O)O)c(C)n2C(=O)c1ccc(Cl)cc1 [indomethacin] |  |  |  |  |  |  |  |  | Side-effects of topical NSAID ([3]; mouse, in vivo): toxic side-effects
5 | O=C(O)Cc1ccccc1Nc1c(Cl)cccc1Cl [diclofenac] |  |  |  |  |  |  |  |  | Side-effects of topical NSAID ([3]; topical gel, probably systemic absorption in too high amounts): toxic side-effects
6 | Nc1nc2c(ncn2COCCO)c(=O)[nH]1 [Acyclovir] | 3.3 ± 0.3 mm | 8.0 ± 1.3 | 118 % of placebo | 100 % of placebo |  |  |  |  | ear thickness (% of placebo) ([1]; systemic treatment, 50 mg/kg i.p. three times daily): 88 % of placebo; Mean cumulative value ± s.d., ear thickness [1, 5]: 3.0 ± 0.4 mm; Mean cumulative value ± s.d., lesion score [1, 5]: 7.0 ± 1.6; Shortening of healing time (recurrent HSV infections): no more than approximately one day
7 | CCCC1O[C@@H]2C[C@H]3[C@@H]4CCC5=CC(=O)C=C[C@]5(C)[C@H]4[C@@H](O)C[C@]3(C)[C@]2(C(=O)CO)O1 (stereo partly drawn) [Budesonide] |  |  |  |  | 2.1 ± 0.4 mm | 8.8 ± 1.8 | 58 % of placebo | 96 % of placebo | 
